Consider 20 molecules from patent US8303964B2, “Viable non-toxic gram-negative bacteria” (priority 2006, dated 2012).

Converted amounts (≈) assume the structure as drawn. Where two headings read alike, the source gives them in different places. Bridge positions count the residues as written; N and C are the ends. Square brackets hold non-standard residues; d marks the D form. Peptide text beside a SMILES is read from it. * marks the point of attachment. Ileψ(thiazoline)Cys = CC[C@H](C)[C@H](N)C1=N[C@H](C(=O)*)CS1; dOrn = NCCC[C@@H](N)C(=O)O

For one data set, the target named is kdsD (Escherichia coli, UniProt P45395). The following applies: cited from earlier work; for kcat / Km: kdsD; for kcat: A5P to Ru5P or Ru5P to A5P, labelled by substrate.
The test system of another data set is BW30270. In words: microbe, parasite or virus in culture. The format is cell-based, E. coli K-12. The following applies: LB media, 37° C., 18 hours, lowest concentration that completely inhibited growth; for MIC: Escherichia coli, read-out: Minimum Inhibitory Concentration BW30270. The method, then:
(§1) The antibiotics used were from Sigma with the exception of cephaloridine, which was obtained from MicroSource Discovery Systems. Antibiotics were chosen based on their varying mode of action and entry into the cell. […] Colonies from LB agar plate were scraped and suspended in media (˜10^4 cells per mL) with varying concentrations of antibiotics. Cultures were incubated with shaking (˜200 rpm) at 37° C. for 18 hours at which point growth was scored by visual inspection.

The subject of the next data set is KPM22. In words: microbe, parasite or virus in culture. The following applies: for MIC: Escherichia coli, read-out: Minimum Inhibitory Concentration KPM22. The format is cell-based, E. coli. The method, then:
as §1

The target in the next data set is gutQ (Escherichia coli, UniProt P17115). The conditions noted are these: for alternate substrate, product appearance: determined by 31P-NMR. The method, then:
This example describes enzyme assays used in experiments conducted during the course of the present invention. […] All plates contained internal Ru5P standards and appropriate A5P controls in triplicate. One unit of enzyme activity is defined as the conversion of 1 μmol of sugar phosphate per minute at 37° C.
This example describes the characterization of gutQ. […] After 10 minutes at 37° C., reactions containing the potential alternate substrates D-arabinose, D-ribose 5-phosphate, D-glucose 6-phosphate (G6P), D-glucose 1-phosphate, D-glucosamine 6-phosphate, or D-mannose 6-phosphate were quenched and the presence of ketose was determined. Product appearance for D/L-glyceraldehyde 3-phosphate, D-erythrose 4-phosphate, and D-fructose 6-phosphate was assayed by ^31P NMR. Kinetic constants were determined at 37° C. using the discontinuous microplate assay and were initiated by the addition of substrate. Concentrations typically ranged from 0.2Km to 10Km. […] Initial rates (v0) were determined in triplicate and fit to the standard Michaelis-Menten equation using nonlinear least-squares regression to determine Km and kcat values for both the formation and disappearance of Ru5P.

Substrate in data set [1]: O=C(CO)[C@H](O)[C@H](O)COP(=O)(O)O
In words: purified protein, by the assay type. The conditions noted are these: other: gutQ, 37° C., pH 8.25.

Substrate in data set [2]: O=C[C@@H](O)[C@H](O)[C@H](O)COP(=O)(O)O
In words: purified protein, by the assay type. The conditions noted are these: other: gutQ, 37° C., pH 8.25.

[3] abbreviates: LB media, 37° C., 18 hours, lowest concentration that completely inhibited growth.

For orientation: kcat means the number of substrate molecules converted per active site and unit of time at saturation. One may read the Km as the concentration of substrate that gives half-maximal velocity.

Chain of kdsD (P45395 whole entry): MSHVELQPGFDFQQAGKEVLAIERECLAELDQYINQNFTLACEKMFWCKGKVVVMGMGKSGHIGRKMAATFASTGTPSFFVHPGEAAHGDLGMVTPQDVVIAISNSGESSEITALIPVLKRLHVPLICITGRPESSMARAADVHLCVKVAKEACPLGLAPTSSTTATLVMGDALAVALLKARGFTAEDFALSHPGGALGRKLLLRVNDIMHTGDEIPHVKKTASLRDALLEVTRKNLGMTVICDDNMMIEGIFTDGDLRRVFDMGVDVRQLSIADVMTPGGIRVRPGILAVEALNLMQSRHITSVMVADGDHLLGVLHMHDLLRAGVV

For `O=C[C@@H](O)[C@H](O)[C@H](O)COP(=O)(O)O` [A5P, d-arabinose 5-phosphate], at kdsD, the turnover number (kcat) is 157 ± 4 s⁻¹ and the Km is 610 ± 60 µM.
On to `CC1(C)S[C@@H]2[C@H](NC(=O)[C@H](N)c3ccccc3)C(=O)N2[C@H]1C(=O)O` [Ampicillin], for which the MIC amounted to 4 µg/mL (≈ 11.4 µM) with BW30270 and 2 µg/mL (≈ 5.72 µM) in the data set on KPM22 (18 h). The “Fold Difference in MIC” value in the data set on KPM22 is given as 2 fold.
Turning to `CC[C@H](C)[C@H](N)C1=N[C@H](C(=O)N[C@@H](CC(C)C)C(=O)N[C@H](CCC(=O)O)C(=O)N[C@H](C(=O)N[C@H]2CCCCNC(=O)[C@H](CC(N)=O)NC(=O)[C@@H](CC(=O)O)NC(=O)[C@H](Cc3cnc[nH]3)NC(=O)[C@@H](Cc3ccccc3)NC(=O)[C@H]([C@@H](C)CC)NC(=O)[C@@H](CCCN)NC2=O)[C@@H](C)CC)CS1` [Bacitracin] ({Ileψ(thiazoline)Cys}-L[dE]IK[dOrn]I[dF]H[dD]N; lactam 4-C), the “Minimum Inhibitory Concentration BW30270” value in the data set with BW30270 is 4096 µg/mL. Moreover, the “Minimum Inhibitory Concentration KPM22” value in the data set on KPM22 (setting [3]) is 512 µg/mL. For the same molecule, in the data set on KPM22 (MIC BW30270 versus MIC KPM22), the “Fold Difference in MIC” value was 8 fold.
As for `O=C(Cc1cccs1)N[C@@H]1C(=O)N2C(C(=O)[O-])=C(C[n+]3ccccc3)CS[C@H]12` [Cephaloridine], the MIC in the data set with BW30270 and in the data set with KPM22 (setting [3]) was 4 µg/mL (≈ 9.63 µM) throughout. Further, the “Fold Difference in MIC” value with KPM22 (MIC BW30270 versus MIC KPM22) was determined as 1 fold.
With `O=C(N[C@H](CO)[C@H](O)c1ccc([N+](=O)[O-])cc1)C(Cl)Cl` [Chloramphenicol], the MIC in the data set with BW30270 was 8 µg/mL (≈ 24.8 µM); with KPM22 (setting [3]), 2 µg/mL (≈ 6.19 µM).
With `O=C[C@H](O)[C@H](O)COP(=O)(O)O` [D-erythrose 4-phosphate], at gutQ, the “alternate substrate, product appearance” value was “served as alternate substrates”.
Turning to `O=C(CO)[C@@H](O)[C@H](O)[C@H](O)COP(=O)(O)O` [D-fructose 6-phosphate], the “alternate substrate, product appearance” value on gutQ is listed as “served as alternate substrates”.
For `O=CC(O)COP(=O)(O)O` [D/L-glyceraldehyde 3-phosphate], on gutQ, the “alternate substrate, product appearance” value was “served as alternate substrates”.
`O=C(O)CN(CCN(CC(=O)O)CC(=O)O)CC(=O)O` [EDTA]: the “Activation by EDTA” value at gutQ and at kdsD was “Yes” each time.
`CC[C@H]1OC(=O)[C@H](C)[C@@H](O[C@H]2C[C@@](C)(OC)[C@@H](O)[C@H](C)O2)[C@H](C)[C@@H](O[C@@H]2O[C@H](C)C[C@H](N(C)C)[C@H]2O)[C@](C)(O)C[C@@H](C)C(=O)[C@H](C)[C@@H](O)[C@]1(C)O` [Erythromycin]: in the data set with KPM22 (setting [3]), the MIC worked out at 1 µg/mL (≈ 1.36 µM).
On to `CC(=O)O[C@H]1C[C@@]2(C)[C@@H](C[C@@H](O)[C@H]3[C@@]4(C)CC[C@@H](O)[C@@H](C)[C@@H]4CC[C@@]32C)/C1=C(\CCC=C(C)C)C(=O)O` [Fusidic Acid], for which the MIC in the data set with BW30270 turned out to be 512 µg/mL (≈ 991 µM); with KPM22 (setting [3]), 2 µg/mL (≈ 3.87 µM). Further, the “Fold Difference in MIC” value in the data set on KPM22 (MIC BW30270 versus MIC KPM22) is on record as 256 fold.
With `NC[C@H]1O[C@H](O[C@H]2[C@H](O)[C@@H](O[C@H]3O[C@H](CO)[C@@H](O)[C@H](N)[C@H]3O)[C@H](N)C[C@@H]2N)[C@H](O)[C@@H](O)[C@@H]1O` [Kanamycin], the MIC turned out to be 16 µg/mL (≈ 33 µM) with BW30270 and 1 µg/mL (≈ 2.06 µM) in the data set on KPM22 (setting [3]). Also, in the data set on KPM22 (MIC BW30270 versus MIC KPM22), the “Fold Difference in MIC” value is listed as 16 fold.
As for `CO[C@@H]1[C@@H](OC(N)=O)[C@@H](O)[C@H](Oc2ccc3c(O)c(NC(=O)c4ccc(O)c(CC=C(C)C)c4)c(=O)oc3c2C)OC1(C)C` [Novobiocin], in the data set on KPM22 (setting [3]), the MIC stood at 1 µg/mL (≈ 1.63 µM).
As to `CO[C@H]1/C=C/O[C@@]2(C)Oc3c(C)c(O)c4c(O)c(c(/C=N/N5CCN(C)CC5)c(O)c4c3C2=O)NC(=O)/C(C)=C\C=C\[C@H](C)[C@H](O)[C@@H](C)[C@@H](O)[C@@H](C)[C@H](OC(C)=O)[C@@H]1C` [Rifampin], in the data set on BW30270, the MIC was determined as 16 µg/mL (≈ 19.4 µM).
With `O=C(CO)[C@H](O)[C@H](O)COP(=O)(O)O` [Ru5P, D-ribulose 5-phosphate], at kdsD, the kcat is 255 ± 16 s⁻¹ and the Michaelis-Menten constant (Km) is 350 ± 80 µM.
As for `CCCCCCCCCCCCOS(=O)(=O)[O-].[Na+]` [Sodium dodecyl sulfate (SDS), Sodium dodecyl sulfate], the MIC in the data set with BW30270 is over 32000 µg/mL; in the data set with KPM22 (setting [3]), 8 µg/mL. For the same molecule, the “Fold Difference in MIC” value in the data set with KPM22 (MIC BW30270 versus MIC KPM22, listed as sodium dodecyl sulfate, sulfate) was over 4000 fold; with KPM22 (MIC BW30270 versus MIC KPM22, sulfate) it was over 4000 fold.
Take `CN[C@H](CC(C)C)C(=O)N[C@H]1C(=O)N[C@@H](CC(N)=O)C(=O)N[C@H]2C(=O)N[C@H]3C(=O)N[C@H](C(=O)N[C@H](C(=O)O)c4cc(O)cc(O)c4-c4cc3ccc4O)[C@H](O)c3ccc(c(Cl)c3)Oc3cc2cc(c3O[C@@H]2O[C@H](CO)[C@@H](O)[C@H](O)[C@H]2O[C@H]2C[C@](C)(N)[C@H](O)[C@H](C)O2)Oc2ccc(cc2Cl)[C@H]1O` [Vancomycin]: the MIC with BW30270 is 256 µg/mL (≈ 177 µM); with KPM22 (setting [3]), 32 µg/mL (≈ 22.1 µM).
Regarding `[Zn+2]` [Zn^2+], the “Inhibition by 10 μM Zn^2+” value on gutQ and at kdsD was “Yes” throughout.
Turning to Polymyxin E, the “Minimum Inhibitory Concentration BW30270” value in the data set on BW30270 is 0.25 µg/mL. For the same molecule, the “Minimum Inhibitory Concentration KPM22” value in the data set on KPM22 (setting [3]) was found to be 0.06 µg/mL. Also, the “Fold Difference in MIC” value in the data set on KPM22 (MIC BW30270 versus MIC KPM22) was about 4 fold.

B1: gutQ (Escherichia coli K-12) (protein)
chain: MSEALLNAGRQTLMLELQEASRLPERLGDDFVRAANIILHCEGKVVVSGIGKSGHIGKKIAATLASTGTPAFFVHPAEALHGDLGMIESRDVMLFISYSGGAKELDLIIPRLEDKSIALLAMTGKPTSPLGLAAKAVLDISVEREACPMHLAPTSSTVNTLMMGDALAMAVMQARGFNEEDFARSHPAGALGARLLNKVHHLMRRDDAIPQVALTASVMDAMLELSRTGLGLVAVCDAQQQVQGVFTDGDLRRWLVGGGALTTPVNEAMTVGGTTLQSQSRAIDAKEILMKRKITAAPVVDENGKLTGAINLQDFYQAGII
With B1, in data set [1], the Michaelis-Menten constant (Km) came to 640 ± 80 µM and the kcat was found to be 242 ± 11 s⁻¹. In addition, in data set [2], the Km turned out to be 1200 ± 100 µM and the kcat came to 218 ± 4 s⁻¹.
